Data reported in US11040937B2, “Amide derivative” (TOHOKU UNIVERSITY, priority 2014, dated 2021).
Read-outs that look alike come from different tables or passages of the source.

Key:
[1] = tested on: human OPN promoter (pOPN1-luc) in A549/OPNluc cells; experiment: Luciferase assay: luciferase expression under control of OPN promoter; format: cell-based; settings: Homo sapiens
Description: A reporter vector pOPN1-luc obtained by the insertion of a human OPN promoter sequence (−765 to 23) into the multiple cloning site of pGL-3 basic vector (Promega) expresses luciferase when transfected into animal cells. The pOPN1-luc was transfected into a human non-small cell lung cancer-derived cell line A549 together with pPUR (Clontech) that expresses a puromycin resistance gene (puromycin-N-acetyl-transferase gene), and then cells expressing luciferase which could grow a puromycin-supplemented medium were selected. The selected cells were named “A549/OPNluc cells” and used for observation of luciferase expression inhibitory effect under control of OPN promoter, as described below.
A test compound was added to a culture containing A549/OPNluc cells to observe its influence on the amount of luciferase expressed in the cells. Here, it can be considered that when the test compound has a cell cytotoxity or cell growth inhibitory effect, the total expression level of luciferase is reduced due to a reduction in the number of living cells that depends on the concentration of the test compound, and therefore the luciferase expression inhibitory effect of the test compound under control of OPN promoter cannot be properly evaluated. For this reason, WST assay for quantification of cell proliferation ability or cell viability by colorimetric measurement was firstly performed to determine IC50 (concentration for 50% inhibition of cell growth) of the test compound for cell growth. Then, luciferase activity measurement was performed to determine EC50 (concentration for 50% inhibition of luciferase expression) of the test compound for luciferase expression under control of OPN promoter.
The same steps as in the above-mentioned WST assay were performed in which each solution of only DMSO (control) or the diluted test compound (sample) was added in an amount of 0.5 μL to each well containing the cell suspension to achieve 200-fold dilution, and the solution in each well was mixed with a vortex mixer, and the 96-well plate was incubated in a CO2 incubator (at 37° C. and 5% CO2) for 48±4 hours.
Luciferase Assay Substrate (hereinafter referred to as “LAS”) supplied in Luciferase Assay Systems (Promega: Cat #E1500) was dissolved in Luciferase Assay Buffer (LAB) to prepare a luciferase reagent. 5×Cell Culture Lysis Reagent (hereinafter referred to as “CCLR”) was diluted by 5 times with water to prepare 1×CCLR.
After the incubation for 48±4 hours, the medium in each well was completely removed, and 1×CCLR was dispensed into each well in an amount of 50 μL. The 96-well plate was allowed to stand at room temperature for 30 minutes, and then 1×CCLR in each well was used as an assay sample. The luciferase reagent (100 μL) was placed in a tube for chemiluminescence measurement, and the assay sample (20 μL) was added to the tube and mixed with the luciferase reagent to measure chemiluminescence (Relative Luminescence Intensity: RLU) using TB 20/20 (Promega) or GloMax 20/20 (Promega).
The RLU values of the control wells and the sample wells at each concentration were input into an Excel file, and the percentages of RLU values of the sample wells at each concentration to the average RLU value of the control wells were determined. From these values, a fitted curve was determined by the method of least squares to calculate EC50. Also, the percentages of RLU values of the sample wells at each concentration to the average RLU value of the control wells were divided by the percentages of absorbance values of the compounds in WST assay at the same concentrations as those of this assay (to the control), and a fitted curve was determined from the calculated values by the method of least squares to calculate corrected EC50.

A549 cells = experiment: Matrix-Invasion assay (Matrigel); format: cell-based, human; settings: 10 μmol/L, 48±4 hours, significance level less than 5%
Experimental: As a second test for determining whether or not the physiological function of cells induced by the OPN production is inhibited with a test compound, Matrix-Invasion assay was performed. In this assay, cups (inserts) whose bottom was covered with a membrane having φ8 μm pores coated with collagen or laminin (Matrigel, BD Bioscience) that is an extracellular matrix component and a 24-well plate for inserting the inserts were prepared. […]
Specifically, a fluorescent dye was introduced into A549 cells invading outside the membrane, and then the cells were separated from the membrane to measure their fluorescence intensity. At the same time, a fluorescent dye was introduced into a known number of cells for preparing a calibration curve, and a calibration curve was prepared from their fluorescence intensity. Then, the number of invading cells of a test sample containing an unknown number of cells was determined from the fitted curve. […]
The cells of human non-small cell lung cancer-derived cell line A549 were suspended in DMEM medium containing 10% FCS and 1% P/S at 1.8×10^5 cells/mL to obtain a cell suspension. […] This day was counted as Day 0 of operation. […]

[2] = A549, A549/OPNluc cells, 48±4 hours, read-out: EC50 (concentration for 50% inhibition of luciferase expression)
[3] = A549, EC50 corrected for decrease in viable cells (RLU % divided by WST %), read-out: corrected EC50

O=C(CCNC(=O)c1ccc(O)cc1)Nc1cccc(Oc2ccc(Cl)c(Cl)c2)c1 [Compound 38, N-(3-(3-(3,4-dichlorophenoxy)phenylamino)-3-oxopropyl)-4-hydroxybenzamide]
EC50 [1, 2]: 4.6 µM
EC50 [1, 3]: 7.5 µM

COc1ccc(Oc2cccc(C(=O)CCNC(=O)c3ccc(O)cc3)c2N)cc1 [Compound 6, N-(3-(2-Amino-3-(4-methoxyphenoxy)phenyl)-3-oxopropyl)-4-hydroxybenzamide]
EC50 [1, 2]: 8.9 µM
EC50 [1, 3]: 10.2 µM
number of invading cells vs control group (A549 cells): significantly inhibited

COc1ccc(Oc2cccc(NC(=O)CCNC(=O)c3ccc(O)cc3)c2)cc1 [Compound 26, N-(3-(3-(4-Methoxyphenoxy)phenylamino)-3-oxopropyl)-4-hydroxybenzamide]
EC50 [1, 2]: 20.3 µM
EC50 [1, 3]: 27.1 µM

Nc1ccc(C(=O)NCCC(=O)c2cccc(Oc3ccc(Cl)cc3)c2N)cc1 [Compound 19, N-(3-(2-Amino-3-(4-chlorophenoxy)phenyl)-3-oxopropyl)-4-aminobenzamide]
EC50 [1, 2]: 6.8 µM
EC50 [1, 3]: 7.8 µM
